Experimental findings from ChEMBL document CHEMBL1139192, “Novel bis(indolyl)maleimide pyridinophanes that are potent, selective inhibitors of glycogen synthase kinase-3” (Bioorg Med Chem Lett, 2007) are described below.

Test [1] concerns the target Protein kinase C theta type (Homo sapiens, UniProt Q04759). As to the kind of experiment: Residual activity of human PKCtheta at 1 uM relative to control.
Test [2] is filed under the species Homo sapiens. Description: Residual activity of human CDK2/Cyclin A at 1 uM relative to control.
Test [3] has as its target Tyrosine-protein kinase Blk (Mus musculus) (UniProt P16277). As to the kind of experiment: Inhibition of mouse Blk at 1 uM relative to control; values are per cent of control.
Test [4] deals with Tyrosine-protein kinase Lyn (Homo sapiens) (UniProt P07948). Description: Inhibition of human Lyn at 1 uM relative to control; values are per cent of control.
Tyrosine-protein kinase Lyn (Homo sapiens), sequence (P07948 2-512 limits assumed): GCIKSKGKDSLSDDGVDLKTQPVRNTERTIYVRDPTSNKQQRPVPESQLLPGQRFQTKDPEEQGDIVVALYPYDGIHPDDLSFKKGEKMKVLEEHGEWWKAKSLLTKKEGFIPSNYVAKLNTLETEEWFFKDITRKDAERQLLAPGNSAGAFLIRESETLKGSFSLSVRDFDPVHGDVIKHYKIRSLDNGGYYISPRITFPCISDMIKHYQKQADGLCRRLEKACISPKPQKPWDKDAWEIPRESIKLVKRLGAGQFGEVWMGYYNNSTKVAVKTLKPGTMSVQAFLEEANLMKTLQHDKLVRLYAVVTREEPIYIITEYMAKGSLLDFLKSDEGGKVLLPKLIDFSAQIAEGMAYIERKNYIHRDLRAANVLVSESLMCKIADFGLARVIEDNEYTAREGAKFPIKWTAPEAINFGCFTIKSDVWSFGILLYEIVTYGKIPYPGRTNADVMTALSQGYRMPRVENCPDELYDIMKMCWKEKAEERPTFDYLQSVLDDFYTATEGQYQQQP
Test [5] addresses Tyrosine-protein kinase Lyn (Mus musculus) (UniProt P25911). As to the kind of experiment: Inhibition of mouse Lyn at 1 uM relative to control; values are per cent of control.
Test [6] has as its target T1, Serine/threonine-protein kinase D2 (Homo sapiens) (UniProt Q9BZL6).
T1 sequence (whole entry): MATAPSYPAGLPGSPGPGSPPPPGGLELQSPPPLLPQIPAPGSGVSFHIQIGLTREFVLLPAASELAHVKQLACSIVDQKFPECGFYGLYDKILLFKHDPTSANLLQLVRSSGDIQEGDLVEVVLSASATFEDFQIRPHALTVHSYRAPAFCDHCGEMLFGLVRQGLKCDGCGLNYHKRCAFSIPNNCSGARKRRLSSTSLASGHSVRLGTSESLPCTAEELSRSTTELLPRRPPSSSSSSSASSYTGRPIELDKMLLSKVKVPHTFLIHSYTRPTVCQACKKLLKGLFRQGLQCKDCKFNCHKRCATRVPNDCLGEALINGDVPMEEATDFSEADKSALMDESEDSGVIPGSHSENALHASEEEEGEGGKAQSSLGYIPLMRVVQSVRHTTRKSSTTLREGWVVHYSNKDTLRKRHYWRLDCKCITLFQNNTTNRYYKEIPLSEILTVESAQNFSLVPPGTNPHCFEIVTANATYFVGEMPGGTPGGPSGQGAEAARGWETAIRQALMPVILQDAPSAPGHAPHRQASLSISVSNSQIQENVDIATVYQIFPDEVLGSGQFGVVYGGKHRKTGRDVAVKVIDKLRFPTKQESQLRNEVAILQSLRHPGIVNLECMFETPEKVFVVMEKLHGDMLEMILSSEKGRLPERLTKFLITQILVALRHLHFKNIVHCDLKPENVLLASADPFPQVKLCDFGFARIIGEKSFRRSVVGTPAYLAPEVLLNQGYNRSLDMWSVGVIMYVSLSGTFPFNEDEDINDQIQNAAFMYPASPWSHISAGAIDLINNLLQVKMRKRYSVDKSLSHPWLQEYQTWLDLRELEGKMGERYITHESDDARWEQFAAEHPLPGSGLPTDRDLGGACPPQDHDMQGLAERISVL
As to the kind of experiment: Inhibition of human PKD2 at 1 uM relative to control; values are per cent of control.

For test [7], the target named is T2, MAP kinase-activated protein kinase 5 (Homo sapiens) (UniProt Q8IW41).
T2 sequence (whole entry): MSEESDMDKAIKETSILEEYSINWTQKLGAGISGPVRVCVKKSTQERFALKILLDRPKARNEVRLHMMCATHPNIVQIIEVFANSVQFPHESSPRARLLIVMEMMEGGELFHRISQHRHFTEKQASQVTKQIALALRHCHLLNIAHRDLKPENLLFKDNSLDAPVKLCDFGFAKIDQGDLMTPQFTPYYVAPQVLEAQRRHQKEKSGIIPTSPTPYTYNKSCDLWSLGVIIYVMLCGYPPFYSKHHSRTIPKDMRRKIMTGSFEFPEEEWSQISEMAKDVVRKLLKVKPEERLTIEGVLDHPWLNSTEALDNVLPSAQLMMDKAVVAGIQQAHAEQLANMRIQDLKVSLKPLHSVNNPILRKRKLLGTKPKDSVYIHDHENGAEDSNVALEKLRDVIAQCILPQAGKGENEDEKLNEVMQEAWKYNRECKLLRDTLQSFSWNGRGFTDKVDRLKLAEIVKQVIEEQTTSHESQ
Description: Inhibition of human PRAK at 1 uM relative to control; values are per cent of control.

Test [8] is filed under the species Homo sapiens. Description: Inhibition of human MAPK2 at 1 uM relative to control; values are per cent of control.
Test [9] concerns the target T3, Protein kinase C iota type (Homo sapiens) (UniProt P41743).
T3 sequence (whole entry): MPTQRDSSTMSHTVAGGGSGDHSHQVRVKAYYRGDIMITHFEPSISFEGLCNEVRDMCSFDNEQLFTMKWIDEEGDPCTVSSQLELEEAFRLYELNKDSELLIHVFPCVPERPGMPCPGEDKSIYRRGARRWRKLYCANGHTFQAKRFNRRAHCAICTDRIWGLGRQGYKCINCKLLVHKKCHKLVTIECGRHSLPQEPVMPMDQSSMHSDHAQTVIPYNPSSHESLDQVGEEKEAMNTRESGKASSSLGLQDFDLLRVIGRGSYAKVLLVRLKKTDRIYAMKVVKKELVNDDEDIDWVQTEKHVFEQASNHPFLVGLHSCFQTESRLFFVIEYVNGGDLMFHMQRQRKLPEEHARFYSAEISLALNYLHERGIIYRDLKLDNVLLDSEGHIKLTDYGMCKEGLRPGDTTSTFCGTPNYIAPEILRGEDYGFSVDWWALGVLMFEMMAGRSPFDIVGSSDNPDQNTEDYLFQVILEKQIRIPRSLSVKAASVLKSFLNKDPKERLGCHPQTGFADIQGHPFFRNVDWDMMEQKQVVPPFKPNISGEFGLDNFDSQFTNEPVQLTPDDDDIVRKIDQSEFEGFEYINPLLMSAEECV
As to the kind of experiment: Inhibition of human PKCiota at 1 uM relative to control; values are per cent of control.

Test [10] deals with Mitogen-activated protein kinase 8 (Homo sapiens) (UniProt P45983). Description: Inhibition of human JNK1alpha1 at 1 uM relative to control; values are per cent of control.
Mitogen-activated protein kinase 8 (Homo sapiens), sequence (P45983 whole entry): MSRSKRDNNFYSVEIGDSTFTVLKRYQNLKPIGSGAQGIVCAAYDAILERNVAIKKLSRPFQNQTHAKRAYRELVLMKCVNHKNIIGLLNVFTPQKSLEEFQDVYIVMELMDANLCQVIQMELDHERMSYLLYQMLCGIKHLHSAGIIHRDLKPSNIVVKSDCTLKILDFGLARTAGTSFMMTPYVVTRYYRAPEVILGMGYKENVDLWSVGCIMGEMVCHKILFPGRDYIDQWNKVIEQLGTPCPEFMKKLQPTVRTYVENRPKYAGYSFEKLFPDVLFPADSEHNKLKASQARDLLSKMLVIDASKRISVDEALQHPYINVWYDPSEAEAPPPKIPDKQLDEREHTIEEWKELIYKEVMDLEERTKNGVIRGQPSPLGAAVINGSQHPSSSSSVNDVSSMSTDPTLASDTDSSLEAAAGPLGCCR
The target of test [11] is Mitogen-activated protein kinase 9 (Homo sapiens) (UniProt P45984). As to the kind of experiment: Inhibition of human JNK2-alpha-2 at 1 uM relative to control; values are per cent of control.
Mitogen-activated protein kinase 9 (Homo sapiens), sequence (P45984 whole entry, looked up): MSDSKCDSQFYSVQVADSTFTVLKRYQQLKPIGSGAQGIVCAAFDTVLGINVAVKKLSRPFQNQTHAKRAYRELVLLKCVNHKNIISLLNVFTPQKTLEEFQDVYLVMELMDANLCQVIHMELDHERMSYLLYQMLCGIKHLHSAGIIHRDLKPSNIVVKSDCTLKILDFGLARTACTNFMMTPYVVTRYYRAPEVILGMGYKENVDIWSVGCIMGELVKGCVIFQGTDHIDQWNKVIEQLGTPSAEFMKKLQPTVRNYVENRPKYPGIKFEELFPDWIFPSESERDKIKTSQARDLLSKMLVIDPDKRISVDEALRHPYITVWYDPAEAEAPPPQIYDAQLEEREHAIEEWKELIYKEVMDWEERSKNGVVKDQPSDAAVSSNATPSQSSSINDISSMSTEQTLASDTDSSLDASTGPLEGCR

Tyrosine-protein kinase Blk (Mus musculus), sequence (P16277 whole entry): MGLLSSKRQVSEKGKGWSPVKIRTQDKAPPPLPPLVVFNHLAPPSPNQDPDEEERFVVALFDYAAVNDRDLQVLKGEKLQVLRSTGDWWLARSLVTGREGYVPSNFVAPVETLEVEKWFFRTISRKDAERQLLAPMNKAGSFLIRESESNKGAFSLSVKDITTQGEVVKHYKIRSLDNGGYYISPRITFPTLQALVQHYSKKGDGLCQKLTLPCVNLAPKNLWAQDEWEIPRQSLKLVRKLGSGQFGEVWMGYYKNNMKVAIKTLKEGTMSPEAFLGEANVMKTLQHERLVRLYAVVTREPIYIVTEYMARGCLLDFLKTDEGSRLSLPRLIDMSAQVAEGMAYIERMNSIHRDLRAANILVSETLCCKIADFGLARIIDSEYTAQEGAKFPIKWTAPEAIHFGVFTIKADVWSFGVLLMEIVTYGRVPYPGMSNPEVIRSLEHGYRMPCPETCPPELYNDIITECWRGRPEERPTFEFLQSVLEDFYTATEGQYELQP
Tyrosine-protein kinase Lyn (Mus musculus), sequence (P25911 whole entry): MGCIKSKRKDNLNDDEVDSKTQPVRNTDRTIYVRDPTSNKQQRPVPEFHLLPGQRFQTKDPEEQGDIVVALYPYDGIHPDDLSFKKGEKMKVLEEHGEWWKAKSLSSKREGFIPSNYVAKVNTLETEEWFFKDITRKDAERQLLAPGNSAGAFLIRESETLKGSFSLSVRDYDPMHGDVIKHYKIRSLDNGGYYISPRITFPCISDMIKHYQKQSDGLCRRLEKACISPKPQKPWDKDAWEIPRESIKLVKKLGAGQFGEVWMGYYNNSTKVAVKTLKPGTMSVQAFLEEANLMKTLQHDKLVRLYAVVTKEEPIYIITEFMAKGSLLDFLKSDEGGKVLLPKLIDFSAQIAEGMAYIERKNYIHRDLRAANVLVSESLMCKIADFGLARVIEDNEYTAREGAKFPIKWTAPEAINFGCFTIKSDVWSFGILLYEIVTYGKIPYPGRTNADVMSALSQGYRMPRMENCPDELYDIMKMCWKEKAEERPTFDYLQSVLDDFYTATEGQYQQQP
Protein kinase C theta type, sequence (Q04759 whole entry, looked up): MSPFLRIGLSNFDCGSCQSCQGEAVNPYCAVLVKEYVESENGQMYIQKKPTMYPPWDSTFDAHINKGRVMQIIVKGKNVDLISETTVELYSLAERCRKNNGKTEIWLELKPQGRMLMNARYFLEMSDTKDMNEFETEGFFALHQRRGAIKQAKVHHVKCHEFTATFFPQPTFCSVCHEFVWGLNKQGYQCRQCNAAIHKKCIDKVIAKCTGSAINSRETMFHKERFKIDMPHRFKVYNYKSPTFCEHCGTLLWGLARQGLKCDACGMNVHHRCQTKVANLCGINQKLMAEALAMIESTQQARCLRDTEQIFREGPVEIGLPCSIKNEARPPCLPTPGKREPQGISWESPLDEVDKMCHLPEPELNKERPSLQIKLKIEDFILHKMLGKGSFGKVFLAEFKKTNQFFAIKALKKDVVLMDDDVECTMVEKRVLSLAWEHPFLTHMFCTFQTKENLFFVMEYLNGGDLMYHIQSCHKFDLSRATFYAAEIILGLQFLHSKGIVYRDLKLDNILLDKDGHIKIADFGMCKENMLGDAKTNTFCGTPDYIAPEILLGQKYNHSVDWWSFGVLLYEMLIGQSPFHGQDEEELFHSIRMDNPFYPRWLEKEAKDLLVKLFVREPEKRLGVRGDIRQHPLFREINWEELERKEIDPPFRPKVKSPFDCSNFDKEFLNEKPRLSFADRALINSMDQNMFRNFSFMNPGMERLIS

`CN(C)c1nc2ccc1CCCn1cc(c3ccccc31)C1=C(C(=O)NC1=O)c1cn(c3ccccc13)CC2`: the residual activity in [1] amounted to 21%; in test [2], 120%; in test [3], 109%; in test [4], 107%; in test [5], 90%; in test [6], 100%. For the same compound, the residual activity in test [7] was 88%; in test [8], 102%; in test [9] it was 85%; in test [10], 102%; in test [11] it was 96%.

Take `O=C1NC(=O)C2=C1c1cn(c3ccccc13)CCCc1cc(nc(N3CCCC3)c1)CCCn1cc2c2ccccc21`: the residual activity was 29% in test [1]; 88% in [2]; 74% in test [3]; 87% in test [4]; 99% in test [5]; 103% in test [6]. In addition, the residual activity in test [7] turned out to be 101%; in [8], 92%; in test [9], 102%; in [10], 108%; in [11], 114%.

`CN(C)c1cc2cc(n1)CCCn1cc(c3ccccc31)C1=C(C(=O)NC1=O)c1cn(c3ccccc13)CCC2`: the residual activity in test [1] came to 27%; in test [2], 80%; in test [3] it was 70%; in test [4], 76%; in [5], 102%; in test [6], 97%. Moreover, the residual activity in [7] is 96%; in [8], 104%; in test [9], 109%; in test [10] it was 105%; in test [11], 106%.

As to `O=C1NC(=O)C2=C1c1cn(c3ccccc13)CCCc1ccc(c(N3CCCC3)n1)CCCn1cc2c2ccccc21`, the residual activity was determined as 33% in test [1]; 88% in [2]; 91% in [3]; 78% in [4]; 104% in test [5]; 115% in test [6]. The residual activity in [7] was 102%; in [8] it was 88%; in test [9], 97%; in [10] it was 104%; in test [11] it was 110%.
